Experiments:
Assay type in all cases: cell-based, human
annexin A11 mRNA = assay: siRNA knockdown of annexin A11, real-time PCR of mRNA in 2008 cells; conditions: siRNA 40 nM, 3 days, compared with negative control cells (-Ctr), P<0.05
Procedure: (§1) (A and B) Effect of silencing of annexin A11 using different siRNA. 2008 cells were treated with one (A1 or A2 or A3) or a combination (A1-3) of three stealth RNA against annexin A11 or nonspecific sequence (-Ctr) at the concentration of 40 nM or without treatment (Wt) for 3 days. Immunoblot analysis (A) and real-time PCR (B) were performed to confirm the suppression of annexin A11 mRNA and protein expressions in the cells. β-Actin was taken as an additional control for equal sampling in immunoblot analysis (A). The relative mRNA expression level of each sample was normalized to GAPDH expression and compared with -Ctr sample. *P<0.05 (B). (C) Dose-dependent silencing of annexin A11 by siRNA. 2008 cells were treated with RNAi (A1) at the indicated concentrations of 40, 20, 10, or 5 nM or -Ctr at the concentration of 40 nM or without treatment (Wt) for 3 days. Immunoblot analysis (C) was performed to check the annexin A11 expression levels in the cells. β-Actin was taken as an additional control for equal sampling. (D) Duration of silencing of annexin A11 using siRNA. 2008 or HEY cells were treated with RNAi (A1) or -Ctr at the concentration of 40 nM. Immunoblot analysis was performed to analyze the annexin A11 expression levels in these cells.
All stealth RNA interference (RNAi) sequences were purchased from Invitrogen. The three stealth RNAi that targeted different annexin A11 sequences were as follows: A1, […]; A2, […]; and A3, […]. The stealth RNAi negative control duplex (medium GC) was used as a negative control. […] The optimized dose and duration of RNAi silencing were experimentally determined. […]
(Invitrogen) according to the manufacturer's instructions. […] An experiment consisted of triplicate amplification reactions for each gene product being analyzed. […] The cycle threshold number (CT) was determined for each PCR using iQ5 Real-time PCR Detection System (Bio-Rad). […] Results are expressed as relative abundance of a specific mRNA between control and experimental sample (fold change, mean±SD).

annexin A11 protein [1] = assay: siRNA knockdown of annexin A11, immunoblot analysis in 2008 cells; conditions: for annexin A11 protein expression (immunoblot): siRNA 40 nM, compared with strong expression in -Ctr and Wt cells
Procedure: as §1
All stealth RNA interference (RNAi) sequences were purchased from Invitrogen. The three stealth RNAi that targeted different annexin A11 sequences were as follows: A1, […]; A2, […]; and A3, […]. The stealth RNAi negative control duplex (medium GC) was used as a negative control. Transfection of annexin A11-specific siRNA and the negative control was performed using Lipofectamine 2000 (Invitrogen). The optimized dose and duration of RNAi silencing were experimentally determined. Briefly, cancer cells were seeded the day before siRNA transfection in either six-well plates or T25 flasks and were 30% to 50% confluent at the time of transfection. Stealth RNAi and Lipofectamine were diluted in Opti-MEM I Medium (Invitrogen), and 40 nM of the siRNA duplex was used in each transfection mixture. 2008 or HEY cells were transfected with one annexin A11-specific siRNA (A1 or A2 or A3) or a combination of three different siRNA at the equal amount (A1-3) or negative control for 2 to 3 days and were then harvested for the downstream experiments.
The denatured samples were electrophoresed on 4% to 15% gradient SDS-PAGE gels (Bio-Rad), electroblotted on nitrocellulose membranes (Bio-Rad), and probed with the respective antibodies against different targets. Both anti-annexin A11 (1:10,000) and anti-annexin A5 (1:2000) monoclonal antibodies were purchased from BD Biosciences (San Jose, Calif.). Rabbit anti-human HMOX1 polyclonal antibody (1:500) and mouse polyclonal anti-LY6D (1:500) were purchased from GenWay Biotech (San Diego, Calif.) and Novus Biologicals (Littleton, Colo.), respectively. The bound antibodies were visualized with horseradish peroxidase-conjugated secondary antibodies and enhanced chemiluminescence (Amersham, Pittsburgh, Pa.). Actin in the corresponding cell lysates was used as an additional control to show equal loading.

annexin A11 protein [2] = assay: siRNA knockdown of annexin A11, immunoblot analysis in HEY cells; conditions: after 2 days of siRNA transfection at 40 nM
Procedure: as §1, with “Immunoblot analysis was performed to analyze the annexin A11 expression levels in these cells.” left out
All stealth RNA interference (RNAi) sequences were purchased from Invitrogen. […] The optimized dose and duration of RNAi silencing were experimentally determined. […]

2008 cells [3] = assay: Cell proliferation assay (CCK-8) after annexin A11 siRNA, 2008 cells; conditions: siRNA 40 nM 3 days, compared with negative control transfectants, P<0.05
Procedure: (§2) (A and B) Cell proliferation assay. 2008 (A) or HEY (B) cells were treated with RNAi (A1) or -Ctr at the concentration of 40 nM for 3 days, respectively, and then plated at 3000 viable cells per well into 96-well plates. Every 24 hours, one plate was subjected to assay by CCK-8 kit. The data in each time point are averaged values from eight replicates (P<0.05). (C) Colony formation assay. 2008 cells were treated in the same way as above for 3 days and then plated at 3000 viable cells per well into six-well plates. Six days after plating, cells were fixed with methanol and stained with 0.1% crystal violet and colonies were counted. The experiment was performed in six replicates (P<0.01). (D) Cell cytotoxicity assay. 2008 cells were treated in same way as above for 3 days and then plated at 3000 viable cells per well into 96-well plates. […]
(§3) Cell Counting Kit-8 (CCK-8; Dojindo, Gaithersburg, Md.) was used in cell proliferation assay. […] Cells were then collected by trypsinization, counted by using a hemacytometer with trypan blue dye, and plated at 3000 viable cells per well into 96-well tissue culture plates in a final volume of 100 μl. […] The absorbance at 450 nm was measured with a microplate reader (EL 312e; Biotek Instruments, Winooski, Vt.). […]

HEY cells = assay: Cell proliferation assay (CCK-8) after annexin A11 siRNA, HEY cells; conditions: siRNA 40 nM 3 days, compared with negative control transfectants, P<0.05
Procedure: as §2, §3

2008 cells [4] = assay: Cell colony formation assay after annexin A11 siRNA, 2008 cells; conditions: siRNA 40 nM 3 days, colonies counted six days after plating, P<0.01
Procedure: as §2
2008 and HEY cells were cultured in T25 flasks and transfected with A1 or negative control for 3 days. Cells were then collected, counted, and plated at 3000 viable cells per well into six-well plates. Six days after plating, cells were fixed with methanol and stained with 0.1% crystal violet, and colonies were counted under the light microscope. […]

Row | Substance | down-regulation in annexin A11 mRNA expression levels (annexin A11 mRNA) | annexin A11 protein expression (immunoblot) (annexin A11 protein [1]; 3 days) | silencing effect on annexin A11 expression by concentration (immunoblot) (annexin A11 protein [1]; 5 to 40 nM, 3 days) | duration of silencing of annexin A11 protein expression (annexin A11 protein [1]; after 3 days of siRNA transfection at 40 nM) | duration of silencing of annexin A11 protein expression (annexin A11 protein [2]) | decrease in rate of proliferation (2008 cells [3]) | decrease in rate of proliferation (HEY cells) | colony formation ability (2008 cells [4])
1 | A3: stealth RNAi (Invitrogen) targeting annexin A11, GGGAUUACCGGAAGAUUCUGCUGAA (chemistry not given here) | three-fold to four-fold | barely detectable |  |  |  |  |  | 
2 | A2: stealth RNAi (Invitrogen) targeting annexin A11, CCUCCUGGACAUCAGAUCAGAGUAU (chemistry not given here) | three-fold to four-fold | barely detectable |  |  |  |  |  | 
3 | A1: stealth RNAi (Invitrogen) targeting annexin A11, GGCCGUGGUGAAAUGUCUCAAGAAU (chemistry not given here) | three-fold to four-fold | barely detectable | dose-dependent silencing effect | ≥ 10 days | ≥ 7 days | 40% | 34% | greatly damaged

Reference: US20120004289A1, “ANNEXIN A11 AND ASSOCIATED GENES AS BIOMARKERS FOR CANCER” (The Johns Hopkins University, priority 2009, published 2012)
